PubChem BioAssay (NCI)
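Grown in 96-well plates, cells were treated for 48 hours with each compound at five concentrations. Insufficient inhibition: endpoint recorded as highest concentration tested. Here, GI50 denotes the concentration required for 50% inhibition of growth. TGI: concentration producing complete growth inhibition.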 Active and inactive are the calls of the source. No stated cut-off is given here; in the data, active means GI50 below about 0.43 µM; inactive means the rest.

What was measured:
Assay in all cases: NCI tumour cell line growth inhibition, 48 h
[1] = tested on: SN12C renal
[2] = tested on: UO-31 renal
[3] = tested on: MCF7 breast
[4] = tested on: OVCAR-8 ovarian
[5] = tested on: HCT-15 colon
[6] = tested on: K-562 leukemia
[7] = tested on: M19-MEL melanoma
[8] = tested on: OVCAR-5 ovarian
[9] = tested on: UACC-257 melanoma
[10] = tested on: XF 498 CNS
[11] = tested on: SK-MEL-2 melanoma
[12] = tested on: NCI-H226 lung
[13] = tested on: DMS 273 small cell lung
[14] = tested on: P388 leukemia
[15] = tested on: MALME-3M melanoma
[16] = tested on: RXF 393 renal
[17] = tested on: NCI-H522 lung
[18] = tested on: LOX IMVI melanoma
[19] = tested on: A498 renal
[20] = tested on: EKVX NSCLC
[21] = tested on: SNB-78 CNS
[22] = tested on: NCI-H23 lung
[23] = tested on: DLD-1 colon
[24] = tested on: HT29 colon
[25] = tested on: SK-MEL-28 melanoma
[26] = tested on: IGROV1 ovarian
[27] = tested on: HOP-62 NSCLC
[28] = tested on: SN12K1 renal
[29] = tested on: SW-620 colon
[30] = tested on: SF-539 CNS
[31] = tested on: CAKI-1 renal
[32] = tested on: COLO 205 colon
[33] = tested on: MOLT-4 leukemia
[34] = tested on: OVCAR-3 ovarian
[35] = tested on: SF-268 CNS
[36] = tested on: U251 CNS
[37] = tested on: A549 NSCLC
[38] = tested on: KM12 colon
[39] = tested on: SK-MEL-5 melanoma
[40] = tested on: HCC-2998 colon
[41] = tested on: OVCAR-4 ovarian
[42] = tested on: NCI-H460 lung
[43] = tested on: HL-60(TB) leukemia
[44] = tested on: SNB-19 CNS
[45] = tested on: UACC-62 melanoma
[46] = tested on: HOP-18 NSCLC
[47] = tested on: HOP-92 NSCLC
[48] = tested on: SK-OV-3 ovarian
[49] = tested on: NCI/ADR-RES ovarian
[50] = tested on: SF-295 CNS
[51] = tested on: RPMI-8226 leukemia
[52] = tested on: HCT-116 colon
[53] = tested on: KM20L2 colon
[54] = tested on: CCRF-CEM leukemia
[55] = tested on: SNB-75 CNS
[56] = tested on: P388/ADR leukemia
[57] = tested on: DMS 114 small cell lung

## C[C@H]1COC(c2ccccn2)=N1
[1]
  TGI: > 100 µM
[2]
  TGI: > 100 µM
[3]
  TGI: > 100 µM
[4]
  TGI: > 100 µM
[5]
  TGI: > 100 µM
[6]
  TGI: > 100 µM
[7]
  TGI: > 100 µM
[8]
  TGI: > 100 µM
[9]
  TGI: > 100 µM
[10]
  TGI: > 100 µM
[11]
  TGI: > 100 µM
[12]
  TGI: > 100 µM
[13]
  TGI: > 100 µM
[14]
  TGI: > 100 µM
[15]
  TGI: > 100 µM
[16]
  TGI: > 100 µM
[17]
  TGI: > 100 µM
[18]
  TGI: > 100 µM
[19]
  TGI: > 100 µM
[20]
  TGI: > 100 µM
[21]
  TGI: > 100 µM
[22]
  TGI: > 100 µM
[23]
  TGI: > 100 µM
[24]
  TGI: > 100 µM
[25]
  TGI: > 100 µM
[26]
  TGI: > 100 µM
[27]
  TGI: > 100 µM
[28]
  TGI: > 100 µM
[29]
  TGI: > 100 µM
[30]
  TGI: > 100 µM
[31]
  TGI: > 100 µM
[32]
  TGI: > 100 µM
[33]
  TGI: > 100 µM
[34]
  TGI: > 100 µM
[35]
  TGI: > 100 µM
[36]
  TGI: > 100 µM
[37]
  TGI: > 100 µM
[38]
  TGI: > 100 µM
[39]
  TGI: > 100 µM
[40]
  TGI: > 100 µM
[41]
  TGI: > 100 µM
[42]
  TGI: > 100 µM
[43]
  TGI: > 100 µM
[44]
  TGI: > 100 µM
[45]
  TGI: > 100 µM
[46]
  TGI: > 100 µM
[47]
  TGI: > 100 µM
[48]
  TGI: > 100 µM
[49]
  TGI: > 100 µM
[50]
  TGI: > 100 µM
[51]
  TGI: > 100 µM
[52]
  TGI: > 100 µM
[53]
  TGI: > 100 µM
[54]
  TGI: > 100 µM
[55]
  TGI: > 100 µM
[56]
  TGI: > 100 µM

## C=Cc1ccccc1 (tested in a mixture with another compound)
[1]
  GI50: > 75 µg/mL
  TGI: > 75 µg/mL
[2]
  GI50: > 75 µg/mL
  TGI: > 75 µg/mL
[3]
  GI50: > 75 µg/mL
  TGI: > 75 µg/mL
[4]
  GI50: 63.3 µg/mL
  TGI: > 75 µg/mL
[5]
  GI50: > 75 µg/mL
  TGI: > 75 µg/mL
[6]
  GI50: > 75 µg/mL
  TGI: > 75 µg/mL
[7]
  GI50: > 75 µg/mL
  TGI: > 75 µg/mL
[8]
  GI50: > 75 µg/mL
  TGI: > 75 µg/mL
[9]
  GI50: > 75 µg/mL
  TGI: > 75 µg/mL
[10]
  outcome: inactive
[11]
  GI50: > 75 µg/mL
  TGI: > 75 µg/mL
[12]
  GI50: > 75 µg/mL
  TGI: > 75 µg/mL
[13]
  GI50: > 75 µg/mL
  TGI: > 75 µg/mL
[14]
  GI50: > 75 µg/mL
  TGI: > 75 µg/mL
[15]
  GI50: > 75 µg/mL
  TGI: > 75 µg/mL
[16]
  GI50: > 75 µg/mL
  TGI: > 75 µg/mL
[17]
  GI50: > 75 µg/mL
  TGI: > 75 µg/mL
[18]
  GI50: > 75 µg/mL
  TGI: > 75 µg/mL
[19]
  GI50: > 75 µg/mL
  TGI: > 75 µg/mL
[20]
  GI50: > 75 µg/mL
  TGI: > 75 µg/mL
[22]
  GI50: > 75 µg/mL
  TGI: > 75 µg/mL
[23]
  GI50: > 75 µg/mL
  TGI: > 75 µg/mL
[24]
  GI50: > 75 µg/mL
  TGI: > 75 µg/mL
[25]
  GI50: > 75 µg/mL
  TGI: > 75 µg/mL
[26]
  GI50: > 75 µg/mL
  TGI: > 75 µg/mL
[27]
  GI50: 48.4 µg/mL
  TGI: > 75 µg/mL
[28]
  GI50: > 75 µg/mL
  TGI: > 75 µg/mL
[29]
  GI50: > 75 µg/mL
  TGI: > 75 µg/mL
[30]
  GI50: > 75 µg/mL
  TGI: > 75 µg/mL
[31]
  GI50: > 75 µg/mL
  TGI: > 75 µg/mL
[33]
  GI50: > 75 µg/mL
  TGI: > 75 µg/mL
[34]
  GI50: > 75 µg/mL
  TGI: > 75 µg/mL
[35]
  GI50: > 75 µg/mL
  TGI: > 75 µg/mL
[36]
  GI50: > 75 µg/mL
  TGI: > 75 µg/mL
[37]
  GI50: > 75 µg/mL
  TGI: > 75 µg/mL
[38]
  GI50: > 75 µg/mL
  TGI: > 75 µg/mL
[39]
  GI50: > 75 µg/mL
  TGI: > 75 µg/mL
[40]
  GI50: > 75 µg/mL
  TGI: > 75 µg/mL
[41]
  GI50: > 75 µg/mL
  TGI: > 75 µg/mL
[42]
  GI50: > 75 µg/mL
  TGI: > 75 µg/mL
[57]
  GI50: > 75 µg/mL
  TGI: > 75 µg/mL
[43]
  GI50: > 75 µg/mL
  TGI: > 75 µg/mL
[44]
  GI50: > 75 µg/mL
  TGI: > 75 µg/mL
[45]
  GI50: > 75 µg/mL
  TGI: > 75 µg/mL
[46]
  outcome: inactive
[47]
  GI50: 59.5 µg/mL
  TGI: > 75 µg/mL
[48]
  GI50: > 75 µg/mL
  TGI: > 75 µg/mL
[49]
  GI50: > 75 µg/mL
  TGI: > 75 µg/mL
[50]
  GI50: > 75 µg/mL
  TGI: > 75 µg/mL
[51]
  GI50: > 75 µg/mL
  TGI: > 75 µg/mL
[52]
  GI50: > 75 µg/mL
  TGI: > 75 µg/mL
[53]
  outcome: inactive
[54]
  GI50: > 75 µg/mL
  TGI: > 75 µg/mL
[55]
  GI50: 28.3 µg/mL
  TGI: > 75 µg/mL
[56]
  GI50: > 75 µg/mL
  TGI: > 75 µg/mL
